Patent US20120277197A1, “TIGECYCLINE FORMULATIONS” (WYETH, priority 2008, published 2012)

Columns and labels:
[1] = Effect of pH on stability of tigecycline 0.50 mg/ml in Normal Saline, in a flask at 25° C.; format: physicochemical
Procedure: The effect of pH on the stability of tigecycline formulations having a concentration of 0.50 mg tigecycline/ml in a Normal Saline solution was studied by analyzing the variation of tigecycline content, total impurity content, and the concentration of tigecycline epimer at different pH values, either in the presence of air or under an atmosphere having an oxygen content of less than 1 ppm, in a flask at 25° C.

[2] = simple oral immediate release prototypes, animals; cited from earlier work
[3] = pH 4.5, 72 h, in the presence of air
[4] = pH 5.0, 0 h, in the presence of air
[5] = pH 5.0, 24 h, in the presence of air
[6] = pH 5.0, 72 h, in the presence of air
[7] = pH 5.5, 0 h, in the presence of air
[8] = pH 5.5, 24 h, in the presence of air
[9] = pH 5.5, 72 h, in the presence of air
[10] = pH 6.5, 0 h, in the presence of air
[11] = pH 6.5, 8 h, in the presence of air
[12] = pH 6.5, 24 h, in the presence of air
[13] = pH 6.5, 72 h, in the presence of air
[14] = pH 8.0, 0 h, in the presence of air
[15] = pH 8.0, 8 h, in the presence of air
[16] = pH 8.0, 24 h, in the presence of air
[17] = pH 8.0, 72 h, in the presence of air

CN(C)c1cc(NC(=O)CNC(C)(C)C)c(O)c2c1C[C@H]1C[C@H]3[C@H](N(C)C)C(O)=C(C(N)=O)C(=O)[C@@]3(O)C(O)=C1C2=O [tigecycline, Tigecycline]
Total impurity content as a % of initial weight of tigecycline ([1]; pH 4.5, 24 h, oxygen <1 ppm): 0.682%
Total tigecycline epimer content as a % of initial weight of tigecycline ([1]; pH 4.5, 24 h, oxygen <1 ppm): 0.547%
Percentage of tigecycline remaining [1, 3]: 97%
Total impurity content as a % of initial weight of tigecycline [1, 3]: 2.625%
Total tigecycline epimer content as a % of initial weight of tigecycline [1, 3]: 1.95%
Percentage of tigecycline remaining ([1]; pH 4.5, 72 h, oxygen <1 ppm): 98.50%
Total impurity content as a % of initial weight of tigecycline ([1]; pH 4.5, 72 h, oxygen <1 ppm): 2.365%
Total tigecycline epimer content as a % of initial weight of tigecycline ([1]; pH 4.5, 72 h, oxygen <1 ppm): 1.934%
Percentage of tigecycline remaining [1, 4]: 100%
Total impurity content as a % of initial weight of tigecycline [1, 4]: 0.29%
Total tigecycline epimer content as a % of initial weight of tigecycline [1, 4]: 0.167%
Percentage of tigecycline remaining [1, 5]: 101%
Total impurity content as a % of initial weight of tigecycline [1, 5]: 0.691%
Total tigecycline epimer content as a % of initial weight of tigecycline [1, 5]: 0.49%
Percentage of tigecycline remaining [1, 6]: 99%
Total impurity content as a % of initial weight of tigecycline [1, 6]: 2.632%
Total tigecycline epimer content as a % of initial weight of tigecycline [1, 6]: 1.69%
Percentage of tigecycline remaining [1, 7]: 100%
Total impurity content as a % of initial weight of tigecycline [1, 7]: 0.31%
Total tigecycline epimer content as a % of initial weight of tigecycline [1, 7]: 0.162%
Percentage of tigecycline remaining [1, 8]: 99%
Total impurity content as a % of initial weight of tigecycline [1, 8]: 0.865%
Total tigecycline epimer content as a % of initial weight of tigecycline [1, 8]: 0.52%
Percentage of tigecycline remaining [1, 9]: 97%
Total impurity content as a % of initial weight of tigecycline [1, 9]: 3.221%
Total tigecycline epimer content as a % of initial weight of tigecycline [1, 9]: 1.31%
Percentage of tigecycline remaining [1, 10]: 100%
Total impurity content as a % of initial weight of tigecycline [1, 10]: 0.31%
Total tigecycline epimer content as a % of initial weight of tigecycline [1, 10]: 0.15%
Percentage of tigecycline remaining ([1]; pH 6.5, 0 h, oxygen <1 ppm): 100.0%
Total impurity content as a % of initial weight of tigecycline ([1]; pH 6.5, 0 h, oxygen <1 ppm): 0.224%
Total tigecycline epimer content as a % of initial weight of tigecycline ([1]; pH 6.5, 0 h, oxygen <1 ppm): 0.111%
Percentage of tigecycline remaining [1, 11]: 100%
Total impurity content as a % of initial weight of tigecycline [1, 11]: 0.602%
Total tigecycline epimer content as a % of initial weight of tigecycline [1, 11]: 0.26%
Percentage of tigecycline remaining ([1]; pH 6.5, 8 h, oxygen <1 ppm): 100.56%
Total impurity content as a % of initial weight of tigecycline ([1]; pH 6.5, 8 h, oxygen <1 ppm): 0.399%
Total tigecycline epimer content as a % of initial weight of tigecycline ([1]; pH 6.5, 8 h, oxygen <1 ppm): 0.188%
Percentage of tigecycline remaining [1, 12]: 100%
Total impurity content as a % of initial weight of tigecycline [1, 12]: 1.429%
Total tigecycline epimer content as a % of initial weight of tigecycline [1, 12]: 0.43%
Percentage of tigecycline remaining ([1]; pH 6.5, 24 h, oxygen <1 ppm): 99.59%
Total impurity content as a % of initial weight of tigecycline ([1]; pH 6.5, 24 h, oxygen <1 ppm): 0.812%
Total tigecycline epimer content as a % of initial weight of tigecycline ([1]; pH 6.5, 24 h, oxygen <1 ppm): 0.45%
Percentage of tigecycline remaining [1, 13]: 86%
Total impurity content as a % of initial weight of tigecycline [1, 13]: 11.78%
Total tigecycline epimer content as a % of initial weight of tigecycline [1, 13]: 1.08%
Percentage of tigecycline remaining ([1]; pH 6.5, 72 h, oxygen <1 ppm): 98.03%
Total impurity content as a % of initial weight of tigecycline ([1]; pH 6.5, 72 h, oxygen <1 ppm): 2.654%
Total tigecycline epimer content as a % of initial weight of tigecycline ([1]; pH 6.5, 72 h, oxygen <1 ppm): 1.532%
Percentage of tigecycline remaining [1, 14]: 100%
Total impurity content as a % of initial weight of tigecycline [1, 14]: 0.30%
Total tigecycline epimer content as a % of initial weight of tigecycline [1, 14]: 0.14%
Percentage of tigecycline remaining ([1]; pH 8.0, 0 h, oxygen <1 ppm): 100.0%
Total impurity content as a % of initial weight of tigecycline ([1]; pH 8.0, 0 h, oxygen <1 ppm): 0.22%
Total tigecycline epimer content as a % of initial weight of tigecycline ([1]; pH 8.0, 0 h, oxygen <1 ppm): 0.107%
Percentage of tigecycline remaining [1, 15]: 100%
Total impurity content as a % of initial weight of tigecycline [1, 15]: 0.924%
Total tigecycline epimer content as a % of initial weight of tigecycline [1, 15]: 0.27%
Percentage of tigecycline remaining ([1]; pH 8.0, 8 h, oxygen <1 ppm): 100.81%
Total impurity content as a % of initial weight of tigecycline ([1]; pH 8.0, 8 h, oxygen <1 ppm): 0.443%
Total tigecycline epimer content as a % of initial weight of tigecycline ([1]; pH 8.0, 8 h, oxygen <1 ppm): 0.192%
Percentage of tigecycline remaining [1, 16]: 95%
Total impurity content as a % of initial weight of tigecycline [1, 16]: 3.737%
Total tigecycline epimer content as a % of initial weight of tigecycline [1, 16]: 0.43%
Percentage of tigecycline remaining ([1]; pH 8.0, 24 h, oxygen <1 ppm): 99.64%
Total impurity content as a % of initial weight of tigecycline ([1]; pH 8.0, 24 h, oxygen <1 ppm): 1.214%
Total tigecycline epimer content as a % of initial weight of tigecycline ([1]; pH 8.0, 24 h, oxygen <1 ppm): 0.425%
Percentage of tigecycline remaining [1, 17]: 57%
Total impurity content as a % of initial weight of tigecycline [1, 17]: 29.654%
Total tigecycline epimer content as a % of initial weight of tigecycline [1, 17]: 1.23%
Percentage of tigecycline remaining ([1]; pH 8.0, 72 h, oxygen <1 ppm): 95.98%
Total impurity content as a % of initial weight of tigecycline ([1]; pH 8.0, 72 h, oxygen <1 ppm): 3.461%
Total tigecycline epimer content as a % of initial weight of tigecycline ([1]; pH 8.0, 72 h, oxygen <1 ppm): 1.516%
bioavailability [2]: poor bioavailability
